# Measured values published in Sander's compilation of Henry's law constants (doi:10.1016/j.chroma.2004.12.027).
# Assay: Henry solubility constant Hcp at 298.15 K (mol/(m3 Pa))
# Conditions: reference: Diaz et al. (2005)
row,Henry solubility constant Hcp,Structure (SMILES)
1,0.0052,"COc1c(Br)ccc(Br)c1Br [1,3,4-tribromo-2-methoxybenzene]"
2,0.0074,"COc1c(Br)ccc(Cl)c1Br [2,6-dibromo-3-chloro-1-methoxybenzene]"
3,0.02,"COc1c(Br)cc(Cl)cc1Br [2,6-dibromo-4-chloro-1-methoxybenzene]"
4,0.0082,"COc1c(Cl)cc(Cl)cc1Br [2-bromo-4,6-dichloro-1-methoxybenzene]"
5,0.011,"COc1c(Cl)ccc(Br)c1Cl [3-bromo-2,6-dichloro-1-methoxybenzene]"
6,0.012,"COc1c(Cl)cc(Br)cc1Cl [4-bromo-2,6-dichloro-1-methoxybenzene]"
7,0.0077,"COc1c(Cl)ccc(Cl)c1Br [6-bromo-2,5-dichloro-1-methoxybenzene]"

row,Structure (SMILES),Henry solubility constant Hcp
1,"COc1c(Cl)ccc(Cl)c1Cl [1,2,4-trichloro-3-methoxybenzene]",0.011
2,"COc1c(Br)cc(Br)cc1Br [1,3,5-tribromo-2-methoxybenzene]",0.019
3,"COc1c(Cl)cc(Cl)cc1Cl [1,3,5-trichloro-2-methoxybenzene]",0.0044
